Measured values published in US20240360146A1, “BRUTON'S TYROSINE KINASE AND MUTANT DEGRADER, COMPOSITION AND APPLICATION THEREOF” (HANGZHOU HEALZEN THERAPEUTICS CO., LTD., priority 2021, published 2024).

What was measured:
BTK = biological target: T1, BTK (Homo sapiens, UniProt Q06187); assay: BTK degradation activity test in Mino cells; type: cell-based; conditions: 16 h incubation, Western blot or Elisa
T1 construct: endogenous in cells; host or cells: Mino cells
In short: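 Mino cells treated with a concentration series of compound for 16 h, then lysed; total protein by BCA. BTK quantified by Western blot or ELISA, degradation rate calculated against blank control, and DC50 fitted from the degradation curve.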

OCI-LY10 cells = assay: Inhibitory activity on OCI-LY10 cell proliferation (MTS); type: cell-based; conditions: Homo sapiens, 72 h
In short: (§1)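 Cells seeded at 10000/well, treated with compounds from 1000 nM (4-fold, 8 points) for 72 h (OCI-LY10) or 168 h (Mino) at 37° C. MTS added for 2 h, stopped with SDS, absorbance read at 490 and 650 nm; IC50 from dose-response fit.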

Mino cells = assay: Inhibitory activity on Mino cell proliferation (MTS); type: cell-based; conditions: Homo sapiens, 168 h incubation
In short: as §1

[1] = Stability of compounds in human liver microsome; type: in vitro ADME; conditions: human liver microsomes, NADPH, 37° C., sampling 0-120 min; read-out: Human liver microsome T1/2
Procedure: Compound to be tested: the compound to be tested (1 mg) was dissolved in DMSO (10 mL) to formulate to 0.1 mg/mL.
Internal standard compound: the internal standard compound (1 mg) was dissolved in DMSO (10 mL), 10 μL was taken and diluted to 10 mL to formulate to 100 ng/mL.
NADPH solution: NADPH (2.08 mg) was dissolved in PBS (50 μL) buffer to formulate to 50 mM.
Under the condition of ice bath, 1 mg of human liver microparticles was add to PBS (1 mL) buffer, then NADPH (20 μL) was added, and incubated at 37° C. for 5 min. 10 μL of the compound to be tested was added, and then samples were taken at 0, 15, 30, 60 and 120 min respectively. 10 μL of the solution was taken with a pipette each time and added to 490 μL of the solution containing the internal standard compound. The resulting solution was vortexed and then placed on ice, and then sampling at another time point continues. All samples were centrifuged at 10,000 rpm for 10 min, and the supernatant was taken for LC/MS testing. The metabolism of the compound in liver microsomes was calculated based on the peak area.

T1 sequence (Q06187 whole entry): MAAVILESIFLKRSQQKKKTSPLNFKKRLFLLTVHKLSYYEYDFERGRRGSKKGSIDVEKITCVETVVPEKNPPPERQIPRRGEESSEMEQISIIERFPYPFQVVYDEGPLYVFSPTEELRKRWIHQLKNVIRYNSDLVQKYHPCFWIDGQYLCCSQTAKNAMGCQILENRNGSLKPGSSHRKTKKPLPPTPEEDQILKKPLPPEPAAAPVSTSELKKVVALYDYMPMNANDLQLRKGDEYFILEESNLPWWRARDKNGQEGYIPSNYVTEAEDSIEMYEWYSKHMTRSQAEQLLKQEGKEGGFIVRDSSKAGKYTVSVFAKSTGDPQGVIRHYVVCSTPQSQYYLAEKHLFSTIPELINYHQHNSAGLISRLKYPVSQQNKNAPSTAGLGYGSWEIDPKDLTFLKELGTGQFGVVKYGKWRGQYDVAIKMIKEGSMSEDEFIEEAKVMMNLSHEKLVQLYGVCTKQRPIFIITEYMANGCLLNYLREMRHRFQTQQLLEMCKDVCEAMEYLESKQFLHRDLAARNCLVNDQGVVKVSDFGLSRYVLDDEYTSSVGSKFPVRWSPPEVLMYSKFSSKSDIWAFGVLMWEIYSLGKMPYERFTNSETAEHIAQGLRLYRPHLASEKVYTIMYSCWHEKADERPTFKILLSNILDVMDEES

Compound	DC50 (BTK) [nM]	IC50 (OCI-LY10 cells) [nM]	half-life at 0.97 µg/mL [1] [min]	IC50 (Mino cells) [nM]
NC(=O)c1nnc(N2CCC[C@@H](N3C(=O)CCC3=O)C2)nc1Nc1ccc(C2CCN(CC3CCN(c4ccc5c(c4)C(=O)N(C4CCC(=O)NC4=O)C5=O)CC3)CC2)cc1 (stereo partly drawn) [Compound 135, 5-((4-(1-((1-(2-(2,6-dioxopiperidin-3-yl)-1,3-dioxoisoindolin-5-yl)piperidin-4-yl)methyl)piperidin-4-yl)phenyl)amino)-3-((R)-3-(2,5-dioxopyrrolidin-1-yl)piperidin-1-yl)-1,2,4-triazin-6-carboxamide]	< 1	0.11	25	1.36
NC(=O)c1nnc(N2CCC[C@@H](N3C(=O)CCC3=O)C2)nc1Nc1ccc(C2CCN(CC3CCN(c4ccc5c(c4)C(=O)N(C4CCC(=O)NC4=O)C5=O)C3)CC2)cc1 (stereo partly drawn) [Compound 136, 5-((4-(1-((1-(2-(2,6-dioxopiperidin-3-yl)-1,3-dioxoisoindolin-5-yl)pyrrolidin-3-yl)methyl)piperidin-4-yl)phenyl)amino)-3-((R)-3-(2,5-dioxopyrrolidin-1-yl)piperidin-1-yl)-1,2,4-triazin-6-carboxamide]	< 1	0.79	24	1.61
CN1C(=O)N([C@@H]2CCCN(c3nnc(C(N)=O)c(Nc4ccc(C5CCN(CC6CCN(c7ccc8c(c7)C(=O)N(C7CCC(=O)NC7=O)C8=O)C6)CC5)cc4)n3)C2)C(=O)C12CC2 (stereo partly drawn) [Compound 137, 5-((4-(1-((1-(2-(2,6-dioxopiperidin-3-yl)-1,3-dioxoisoindolin-5-yl)pyrrolidin-3-yl)methyl)piperidin-4-yl)phenyl)amino)-3-((R)-3-(4-methyl-5,7-dioxo-4,6-diazaspiro[2.4]heptan-6-yl)piperidin-1-yl)-1,2,4-triazin-6-carboxamide]	< 1	0.25	20	3.92
NC(=O)c1nnc(N2CCC[C@@H](N3CCN(CC(F)(F)F)C3=O)C2)nc1Nc1ccc(C2CCN(CC3CCN(c4ccc5c(c4)C(=O)N(C4CCC(=O)NC4=O)C5=O)C3)CC2)cc1 (stereo partly drawn) [Compound 140, 5-((4-(1-((1-(2-(2,6-dioxopiperidin-3-yl)-1,3-dioxoisoindolin-5-yl)pyrrolidin-3-yl)methyl)piperidin-4-yl)phenyl)amino)-3-((R)-3-(2-oxo-3-(2,2,2-trifluoroethyl)imidazolin-1-yl)piperidin-1-yl)-1,2,4-triazin-6-carboxamide]	< 1	0.47	26.3	3.46
NC(=O)c1nnc(N2CC3CC(N4C(=O)c5ccccc5C4=O)C2C3)nc1Nc1ccc(C2CCN(CC3CCN(c4ccc5c(c4)C(=O)N(C4CCC(=O)NC4=O)C5=O)CC3)CC2)cc1 (stereo not drawn) [Compound 143, 3-(6-(1,3-dioxoisoindolin-2-yl)-2-azabicyclo[2.2.1]heptan-2-yl)-5-((4-(1-((1-(2-(2,6-dioxopiperidin-3-yl)-1,3-dioxoisoindolin-5-yl)piperidin-4-yl)methyl)piperidin-4-yl)phenyl)amino)-1,2,4-triazin-6-carboxamide]	< 1	0.33	39.1	3.08
NC(=O)c1nnc(N2CC3CC(N4C(=O)c5ccccc5C4=O)C2C3)nc1Nc1ccc(C2CCN(CC3CCN(c4ccc5c(c4)C(=O)N(C4CCC(=O)NC4=O)C5=O)C3)CC2)cc1 (stereo not drawn) [Compound 144, 3-(6-(1,3-dioxoisoindolin-2-yl)-2-azabicyclo[2.2.1]heptan-2-yl)-5-((4-(1-((1-(2-(2,6-dioxopiperidin-3-yl)-1,3-dioxoisoindolin-5-yl)pyrrolidin-3-yl)methyl)piperidin-4-yl)phenyl)amino)-1,2,4-triazin-6-carboxamide]	< 1	3.49	146	3.49

Second part, led by results:

DC50 (BTK) [nM]	IC50 (OCI-LY10 cells) [nM]	half-life at 0.97 µg/mL [1] [min]	Compound	IC50 (Mino cells) [nM]
< 1	1.48	> 30	CN1CCN([C@@H]2CCCN(c3nnc(C(N)=O)c(Nc4ccc(N5CCN(CC6CCN(c7ccc(N8CCC(=O)NC8=O)cc7)C6)CC5)c(F)c4)n3)C2)C1=O (stereo partly drawn) [Compound 147, 5-((4-(4-((1-(4-(2,4-dioxotetrahydropyrimidin-1(2H)-yl)phenyl)pyrrolidin-3-yl)methyl)piperazin-1-yl)-3-fluorophenyl)amino)-3-((R)-3-(3-methyl-2-oxoimidazolin-1-yl)piperidin-1-yl)-1,2,4-triazin-6-carboxamide]	0.54
< 1	3.21	> 30	CN1CCN([C@@H]2CCCN(c3nnc(C(N)=O)c(Nc4ccc(N5CCN(CC6CCN(C(=O)c7ccc(F)c(N8CCC(=O)NC8=O)c7)C6)CC5)c(F)c4)n3)C2)C1=O (stereo partly drawn) [Compound 148, 5-((4-(4-((1-(3-(2,4-dioxotetrahydropyrimidin-1(2H)-yl)-4-fluorobenzoyl)pyrrolidin-3-yl)methyl)piperazin-1-yl)-3-fluorophenyl)amino)-3-((R)-3-(3-methyl-2-oxoimidazolin-1-yl)piperidin-1-yl)-1,2,4-triazin-6-carboxamide]	7.79
< 1	2.6	> 30	COc1ccc(C(=O)N2CCC(CN3CCN(c4ccc(Nc5nc(N6CCC[C@@H](N7CCN(C)C7=O)C6)nnc5C(N)=O)cc4F)CC3)C2)cc1N1CCC(=O)NC1=O (stereo partly drawn) [Compound 149, 5-((4-(4-((1-(3-(2,4-dioxotetrahydropyrimidin-1(2H)-yl)-4-methoxybenzoyl)pyrrolidin-3-yl)methyl)piperazin-1-yl)-3-fluorophenyl)amino)-3-((R)-3-(3-methyl-2-oxoimidazolin-1-yl)piperidin-1-yl)-1,2,4-triazin-6-carboxamide]	8.89
< 1	2.65	> 30	CN1CCN([C@@H]2CCCN(c3nnc(C(N)=O)c(Nc4ccc(N5CCN(CC6CCN(c7ccc(C(=O)N[C@H]8CCC(=O)NC8=O)nc7)CC6)CC5)c(F)c4)n3)C2)C1=O [Compound 171, 5-((4-(4-((1-(6-(((S)-2,6-dioxopiperidin-3-yl)carbamoyl)pyridin-3-yl)piperidin-4-yl)methyl)piperazin-1-yl)-3-fluorophenyl)amino)-3-((R)-3-(3-methyl-2-oxoimidazolidin-1-yl)piperidin-1-yl)-1,2,4-triazin-6-carboxamide]	3.43
< 1	2.39	> 30	CN1CCN([C@@H]2CCCN(c3nnc(C(N)=O)c(Nc4ccc(N5CCN(CC6CCN(c7ccc(C(=O)N[C@H]8CCC(=O)NC8=O)c(F)c7)CC6)CC5)c(F)c4)n3)C2)C1=O [Compound 172, 5-((4-(4-((1-(4-(((S)-2,6-dioxopiperidin-3-yl)carbamoyl)-3-fluorophenyl)piperidin-4-yl)methyl)piperazin-1-yl)-3-fluorophenyl)amino)-3-((R)-3-(3-methyl-2-oxoimidazolidin-1-yl)piperidin-1-yl)-1,2,4-triazin-6-carboxamide]	6.2
< 1	1.79	> 30	CN1CCN([C@@H]2CCCN(c3nnc(C(N)=O)c(Nc4ccc(N5CCN(CC6CCN(c7ccc(N8CCC(=O)NC8=O)nc7)CC6)CC5)c(F)c4)n3)C2)C1=O [Compound 195, (R)-5-((4-(4-((1-(6-(2,4-dioxotetrahydropyrimidin-1(2H)-yl)pyridin-3-yl)piperidin-4-yl)methyl)piperazin-1-yl)-3-fluorophenyl)amino)-3-(3-(3-methyl-2-oxoimidazolidin-1-yl)piperidin-1-yl)-1,2,4-triazin-6-carboxamide]	8.53
